Results on 2 compounds are retold here after patent US8389571B2, “Benzofuran derived HIV protease inhibitors” (Sequoia Pharmaceuticals, Inc., priority 2007, dated 2013).

The target in series [1] is HIV protease Mutant 8 (Human immunodeficiency virus type 1, UniProt P04585). Briefly: HIV protease inhibitory activity, Mutant 8. It is filed as biochemical. The following applies: Mutant 8 protease.
The nature of series [2]: In vivo bioavailability, rat. The note with it: 20 mg/kg p.o.
Series [3] deals with HIV-1 WT. Briefly: Antiviral activity, in vitro drug sensitivity of HIV-1 isolates, WT. It is filed as cell-based. The note with it: Human immunodeficiency virus 1. The protocol: (§1) In Vitro Drug Sensitivity of HIV-1 Laboratory Isolates to PIs
(§2) The sensitivities of HIV-1 isolates against compounds of the invention were determined as previously described with minor modifications (Shiraska et al., Proc. Natl. Acad. Sci. USA, 92, 2398-2402 (1995)).

The subject of series [4] is HIV-1 Mutant 9. Briefly: Antiviral activity, in vitro drug sensitivity of HIV-1 isolates, Mutant 9. The format is cell-based. The following applies: Human immunodeficiency virus 1, read-out: Antiviral activity IC50 Mutant 9. The procedure: as §1, §2
Series [5] has as its target HIV protease Mutant 9 (Human immunodeficiency virus type 1, UniProt P04585). Briefly: HIV protease inhibitory activity, Mutant 9. The following applies: Mutant 9 protease. The format is biochemical.
For series [6], the target named is T1, HIV protease (wt) (Human immunodeficiency virus type 1 group M subtype B, UniProt P04585).
T1 construct: over 45 of the 99 amino acids of the HIV protease monomer
The series can be described thus: HIV protease inhibitory activity, wild type. It is filed as biochemical.

The test system of series [7] is HIV-1 Mutant 8. The series can be described thus: Antiviral activity, in vitro drug sensitivity of HIV-1 isolates, Mutant 8. The format is cell-based. The following applies: Human immunodeficiency virus 1, read-out: Antiviral activity IC50 Mutant 8. The procedure:
as §1, §2

The conditions of series [8]: rat, oral administration; Miller et al., Bioorg Med Chem Lett. 1788-94 (2006); cited from earlier work.

With `Cc1nc(COc2ccc(C[C@H](NC(=O)O[C@H]3CO[C@H]4OCC[C@H]43)[C@H](O)CN(CC(C)C)S(=O)(=O)c3ccc4occc4c3)cc2)cs1` [Compound D], the results for the Ki in series [1], in series [5] and in series [6] were < 0.05 nM, 0.055 nM and < 0.05 nM, respectively. The “AUC (0-12)” value in series [2] is listed as 11 ugxh/mL. For the same compound, the Cmax in series [2] (in vivo, po) stood at 3.51 µM. Moreover, the Tmax in series [2] (in vivo, po) stood at 39.6 min. For the same compound, the bioavailability in series [2] (in vivo, po) turned out to be 92%. Further, the IC50 is 1.4 nM in series [3], 32 nM in series [4] and 4.2 nM in series [7].

Regarding `Cc1nc(COc2ccc(C[C@H](NC(=O)O[C@H]3CO[C@H]4OCC[C@H]43)[C@H](O)CN(CC(C)C)S(=O)(=O)c3ccc4c(c3)OCO4)cc2)cs1` [GW0385, reference compound], the Ki in series [1] was < 0.05 nM; in series [5], 0.13 nM; in series [6], 0.1 nM. For the same compound, the IC50 in series [3] turned out to be 0.8 nM; in series [4] it was 42 nM; in series [7], 3.2 nM. Also, the “% F” value in series [8] is 10%.

One may read the Ki as the dissociation constant of the complex between target and ligand, obtained from inhibition or displacement. The low end stands for higher affinity, the high end for lower affinity. Usually Cmax stands for the peak of the concentration-time curve. What is called Tmax is the time from dosing to the highest level. The bioavailability is the share of a dose that reaches the circulation, judged against a reference dose that is usually intravenous. A word on the IC50: it is the concentration that inhibits the measured activity by half.
